According to patent publication US6482609B1, “Isolated human EDG-4 receptor and polynucletide encoding said receptor” (priority 1997, dated 2002):

Columns and labels:
[1] = molecular target: T1, EDG-1 (Homo sapiens, UniProt P21453); assay: Calcium microfluorimetry (fura-2) in 293-EBNA cells, EDG-1; type: cell-based; conditions: 2 and 10 μM, preliminary data
Description: (§1) Transfections were carried out with EDG receptors in 293-EBNA cells as described above, except that no reporter gene vector was included in the DNA mix. Two days after transfection, cells were harvested by trypsinization and plated at a density of 200,000 cells onto poly-D-lysine-coated coverslips in 100 μl of medium containing 0.5% FBS. After briefly allowing cell attachment to take place, 2 ml of medium without FBS was added and the cells were incubated overnight. The next day, cells were loaded with 5 μM fura-2 AM ester (Molecular Probes) for 60 min at RT, then washed and used for calcium microfluorimetry. […] Treatments were applied using a gravity-fed perfusion apparatus. Fluorescence emission was continuously monitored and recorded with PTI 2.060a software and analyzed with Sigma Plot software. Intracellular calcium concentrations were calculated by interpolation on a ratiometric fluorescence curve generated from fura-2 fluorescence in a calcium dilution series.

[2] = tested on: HeLa cells; assay: Cytotoxicity (viable cell count) in HeLa cells; type: cell-based, human; conditions: S1P concentrations up to 10 μM
Source text: Follow Procedure #2 For HeLa Cells with the following exceptions: […]

[3] = molecular target: T1, EDG-1; assay: NF-κB luciferase reporter in 293-EBNA cells, EDG-1; type: cell-based; design: expressed in transfected cells; host or cells: 293-EBNA; conditions: 3 μM, 6 hours
Description: 3) 30 μl Lipofectamine Reagent (Lipofectamine Plus Kit) was diluted in 750 μl DMEM/F12. The diluted Lipofectamine was then combined with the DNA/Plus mixture and incubated at room temperature for 15 min. […] 2) Transfected cells were harvested by trypsinization and 50,000 cells per well were plated in 96-well Blackview plates coated with poly D-lysine (Becton Dickinson Labware, Cat. 40640). No cells were plated in the outside wells of the 96-well plate. […] 1) Media was removed and cells treated with compounds diluted in DMEM/F12 media. […] 2) The cells were treated for 6 hours. 3) Luciferase assay was performed.

[4] = tested on: COS-1 cells; assay: IL-8 ELISA on control COS-1 cells (empty vector pcDNA3); type: cell-based; conditions: COS-1 cells transfected with pcDNA3; S1P 5 μm
Description: (§2) A. DEAE/Dextran Cell Suspension Transient Transfection.
(§3) Transfection was done as described in Anal Biochem 218:460 (1994).
(§4) 1) 6 ml RSC was added to 4-50 ml tubes. The following amounts of DNA were added:
(§5) 3) 1.5 ml COS-1 cell suspension (5.5×10^6 cells total) in RSC was added to each tube and incubated for 105 min in 37° C. incubator. Tubes were mixed every 20 min.
(§6) 4) Following incubation, tubes were spun for 5 min, cell pellets were washed with DMEM/F12+10% FBS once and then resuspended in 10 ml media. Cells were plated in 24-well plates at 0.2×10^6 cells/well.
(§7) 500 μl treatment volume was used. Supernatants were microfuged at 14,000 rpm for 10 min., transferred to new eppendorf tubes and stored at −20° C. for future IL-8 ELISA determination.
(§8) The procedure as outlined in Procedure for HeLa Cells (D) was followed, using 50 μl of sample per ELISA determination in duplicate.

[5] = molecular target: T1, EDG-1; assay: SRE luciferase reporter (2XSREtk-p4Luc-zeo) in 293-EBNA cells, EDG-1; type: cell-based; design: expressed in transfected cells; host or cells: 293-EBNA; conditions: 3 μM, 6 hours
[6] = tested on: EDG-7; assay: Calcium microfluorimetry in 293-EBNA cells, EDG-7; type: cell-based; conditions: 2 and 10 μM, preliminary data
Description: as §1

[7] = molecular target: rat edg4 (Rattus norvegicus, UniProt P47752); assay: IL-8 ELISA on COS-1 cells transiently transfected with rat EDG-4; type: cell-based; design: expressed in transfected cells
rat edg4, sequence (P47752 whole entry): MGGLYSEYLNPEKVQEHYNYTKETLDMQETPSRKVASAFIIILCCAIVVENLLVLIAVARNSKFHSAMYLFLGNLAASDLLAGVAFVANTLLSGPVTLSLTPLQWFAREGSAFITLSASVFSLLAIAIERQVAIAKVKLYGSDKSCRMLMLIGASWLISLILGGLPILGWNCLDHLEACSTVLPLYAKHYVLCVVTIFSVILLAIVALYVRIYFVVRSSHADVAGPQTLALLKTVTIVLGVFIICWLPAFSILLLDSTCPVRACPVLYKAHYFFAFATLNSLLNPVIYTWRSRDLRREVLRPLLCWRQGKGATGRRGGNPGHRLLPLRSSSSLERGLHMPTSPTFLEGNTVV
Description: as §2, §3, §4, §5, §6, §7, §8

[8] = tested on: HL-60 cells; assay: Cytotoxicity (cell viability) in HL-60 cells; type: cell-based, human
Description: For this purpose, an experiment was conducted to measure cytotoxicity in parallel with IL-8 response. […] Therefore, IL-8 production had to be robust to be observed at 6 hr, while even slight or delayed toxicity would be seen as a loss of viability at 24 hr.

[9] = tested on: Human Umbilical Vein Endothelial Cells (HUVEC); assay: IL-8 ELISA on primary cultured HUVEC treated with lysolipids; type: cell-based; conditions: 6 hr treatment
Description: Plating, Pretreatment and Treatment of HUVEC
Procedures were followed as detailed above in “Procedure #1 for HeLa Cells” with the following exceptions:
Cells were plated at 20,000 cells/well into 24-well plates. The next day, cells were serum-starved overnight in EBM medium (Clonetics) with 0.5% FBS, and then treated in EBM without FBS for 6 hr with the following lysolipids:
Supematants were collected and IL-8 levels were deternined using ELISA as described previously.

T1 sequence (P21453 whole entry, the tested form may be a part): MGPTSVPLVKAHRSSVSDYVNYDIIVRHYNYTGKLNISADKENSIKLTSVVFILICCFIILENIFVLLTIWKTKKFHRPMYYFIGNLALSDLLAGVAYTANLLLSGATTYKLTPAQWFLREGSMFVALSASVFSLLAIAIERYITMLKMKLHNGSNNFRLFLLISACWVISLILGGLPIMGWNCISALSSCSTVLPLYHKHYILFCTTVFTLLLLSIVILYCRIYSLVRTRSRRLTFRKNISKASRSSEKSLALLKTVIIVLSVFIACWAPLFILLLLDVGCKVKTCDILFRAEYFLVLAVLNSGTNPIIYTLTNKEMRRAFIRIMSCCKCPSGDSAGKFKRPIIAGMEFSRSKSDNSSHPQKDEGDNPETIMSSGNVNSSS

Row | Structure (SMILES) | Qualitative calcium response [1] | Cell viability 24 hr after treatment [2] | Luciferase activity (NF-κB reporter) [3] | IL-8 response in control cells [4] | Increase in luciferase activity (SRE reporter) [5] [fold] | Qualitative calcium response [6] | Increase in IL-8 release compared to untreated cells ([7]; COS-1 cells transfected with EDG-4 expression plasmid, 5 μm, overnight) [fold] | PTX sensitivity of IL-8 response ([7]; EDG-4 transfected COS-1 cells, PTX 50 ng/ml) | Concentration at which toxicity begins [8] [µM] | IL-8 response (qualitative) [9]
1 | CCCCCCCCCCCCC/C=C/[C@@H](O)[C@@H](N)COP(=O)(O)O [S1P, sphingosine-1-phosphate] | None within 20 min | No loss of HeLa viability | no increase in luciferase activity | No IL-8 response | 8 | None within 20 min | 2 | pertussis toxin sensitive | 10 | 
2 | CCCCCCCCCCCCC/C=C/[C@@H](O)[C@@H](N)COP(=O)([O-])OCC[N+](C)(C)C [SPC, sphingosylphosphorylcholine] |  |  |  |  |  |  |  |  |  | Marginal increases
